Values quoted from earlier work, collected in patent US9433602B2, “Combination and composition for treating obesity” (LABORATORIOS SENOSIAIN S.A. DE C.V., priority 2010, dated 2016).
“And” between values parts separate entries of the source, which are not always exact repeats. Equal values may be shown once.

Legend:
[1] = tested on: gastric and pancreatic lipases; details: pharmacological effect of the drug
[2] = not given; remark: listed apart in the source
[3] = humans, taken orally

Row | Compound | Decrease of the absorption of ingested fat [1] [%] | Plasma concentrations of intact orlistat (after single administration of 360 mg, normal weight and obese subjects) [ng/mL] | Plasma concentrations in general (in general, no evidence of accumulation) | Share of the fecally excreted dose that was unchanged orlistat (of the dose excreted in feces) [%] | Administered dose excreted in feces (people with normal weight or obese) | Solubility in chloroform ([2]; chloroform) | Solubility in water [2] | Bioavailability [3] | Half-life [3] | Solubility in alcohol and methanol ([2]; alcohol and methanol) | Solubility in hydrochloric acid 10% ([2]; hydrochloric acid 10%)
1 | CCCCCCCCCCC[C@@H](C[C@@H]1OC(=O)[C@H]1CCCCCC)OC(=O)[C@H](CC(C)C)NC=O [orlistat] | 30 | < 5 | < 10 ng/ml and < 0.02 μM | 83 | Approximately 97% | easily soluble in chloroform | insoluble in water | – | – | – | –
2 | Oc1ccc(/C=C/c2cc(O)cc(O)c2)cc1 [trans-resveratrol] | – | – | – | – | – | – | – | relatively low | approximately 8 h | – | –
3 | Oc1ccc(C=Cc2cc(O)cc(O)c2)cc1 [Resveratrol, 3,5,4′-trihydroxystilbene] | – | – | – | – | – | – | insoluble in water | – | – | soluble in alcohol and methanol | insoluble in hydrochloric acid 10%
